Ki data for twelve molecules are collected here from patent publication US20250312499A1, “KISSPEPTIN RECEPTOR (KISS1R) TARGETED THERAPEUTICS AND USES THEREOF” (priority 2024, published 2025).

pKi: −log10 of the molar value. Numbered stars: 1 amine (or outer) side, 2 acyl side, 3 side chain; on linkers, the order of the positions; unused ones are H or OH. Square brackets hold non-standard residues; d marks the D form. Side chains are listed from the residue outwards. Peptide text beside a SMILES is read from it. * marks the point of attachment. DOTA(Lu) = O=C1CN2CCN3CCN(CC(=O)*)CCN(CC2)CC(=O)[O][Lu]([O]1)[O]C(=O)C3; DOTA = O=C(O)CN1CCN(CC(=O)O)CCN(CC(=O)*)CCN(CC(=O)O)CC1; Gly(N-(3-F-4-Me-benzyl)) = Cc1ccc(CNCC(=O)*)cc1F; γGlu = O=C(O)[C@H](CCC(=O)[*:2])N[*:1]; 2Nal = N[C@@H](Cc1ccc2ccccc2c1)C(=O)O; Palmitoyl = CCCCCCCCCCCCCCCC(=O)*; Trx = NC[C@H]1CC[C@H](C(=O)O)CC1; dCya = N[C@H](CS(=O)(=O)O)C(=O)O; 4Pal = N[C@@H](Cc1ccncc1)C(=O)O; PEG4 = NCCOCCOCCOCCOCCC(=O)O; 4Amb = NCc1ccc(C(=O)O)cc1; Api = NC1(C(=O)O)CCNCC1; Ahx = NCCCCCC(=O)O; azaGly = NNC(=O)O

In the first assay the target is human kisspeptin receptor (Homo sapiens (Human), UniProt Q969F8). The assay is described as follows: Human KISS1R binding assay (membrane competition binding).
Chain of human kisspeptin receptor (Q969F8 whole entry): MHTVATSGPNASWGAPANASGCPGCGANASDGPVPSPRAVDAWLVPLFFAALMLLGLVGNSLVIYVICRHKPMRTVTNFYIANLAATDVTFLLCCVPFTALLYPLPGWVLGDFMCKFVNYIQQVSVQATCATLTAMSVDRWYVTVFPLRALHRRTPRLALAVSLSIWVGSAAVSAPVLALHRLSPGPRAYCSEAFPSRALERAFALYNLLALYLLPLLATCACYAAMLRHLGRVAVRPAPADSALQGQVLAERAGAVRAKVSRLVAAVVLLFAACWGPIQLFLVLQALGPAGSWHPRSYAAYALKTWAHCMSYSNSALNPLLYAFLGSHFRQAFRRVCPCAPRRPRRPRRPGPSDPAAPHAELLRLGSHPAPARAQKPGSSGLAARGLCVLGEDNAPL
Conditions: not given
Summed up:
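Membranes from tetracycline-induced (48 h) Flp-In T-Rex 293 cells expressing receptor, 5–10 μg, incubated 90 min at room temperature with 0.2 nM [125I]-metastin (45-54) and competitor (typically 0–10,000 nM) in Tris/Mg/Ca/EGTA/0.1% BSA, pH 7.4. Filtration, washing, counting; Ki by non-linear regression.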
Molecule `Cc1ccc(CNCC(=O)N2CCC(NC(=O)[C@H](CC(C)C)NC(=O)NNC(=O)[C@H](Cc3ccccc3)NC(=O)[C@@H](NC(=O)[C@H](CC(N)=O)NC(=O)[C@H](Cc3ccc4ccccc4c3)NC(=O)[C@@H](Cc3ccc(O)cc3)NC(=O)CCCCCNC(=O)CN3CCN4CCN5CCN(CC3)CC(=O)[O][Lu]([O]C(=O)C4)[O]C(=O)C5)[C@@H](C)O)(C(=O)N[C@@H](Cc3c[nH]c4ccccc34)C(N)=O)CC2)cc1F` [Compound 118-Lu] ({DOTA(Lu)-Ahx}-[dY][2Nal]NTF[azaGly]L[Api](Gly(N-(3-F-4-Me-benzyl)))W-NH2) had a negative-log Ki (pKi) of over 8.00.

The same assay, now with this note: 90 min at room temperature; competition with 0.2 nM [125I]-metastin (45-54); Flp-In T-Rex 293 kisspeptin membranes; metal complexes nonradioactive Ga, In, Lu; read-out: hKiSSR Binding Ki (90 min).
For `Cc1ccc(CNCC(=O)N2CCC(NC(=O)[C@H](CC(C)C)NC(=O)NNC(=O)[C@H](Cc3ccccc3)NC(=O)[C@@H](NC(=O)[C@H](CC(N)=O)NC(=O)[C@@H](Cc3c[nH]c4ccccc34)NC(=O)[C@@H](Cc3c[nH]cn3)NC(=O)[C@@H](Cc3ccc(O)cc3)NC(=O)CCCCCNC(=O)CN3CCN(CC(=O)O)CCN(CC(=O)O)CCN(CC(=O)O)CC3)[C@@H](C)O)(C(=O)N[C@@H](Cc3ccncc3)C(N)=O)CC2)cc1F` [Compound 107] ({DOTA-Ahx}-[dY][dH][dW]NTF[azaGly]L[Api](Gly(N-(3-F-4-Me-benzyl)))[4Pal]-NH2), the pKi was over 8.00.
Same read-out and setting: next, `Cc1ccc(CNCC(=O)N2CCC(NC(=O)[C@H](CC(C)C)NC(=O)NNC(=O)[C@H](Cc3ccccc3)NC(=O)[C@@H](NC(=O)[C@H](CC(N)=O)NC(=O)NNC(=O)[C@@H](Cc3ccc(O)cc3)NC(=O)CCCCCNC(=O)CN3CCN(CC(=O)O)CCN(CC(=O)O)CCN(CC(=O)O)CC3)[C@@H](C)O)(C(=O)N[C@@H](Cc3c[nH]c4ccccc34)C(N)=O)CC2)cc1F` [Compound 108] ({DOTA-Ahx}-[dY][azaGly]NTF[azaGly]L[Api](Gly(N-(3-F-4-Me-benzyl)))W-NH2): over 8.00; `Cc1ccc(CNCC(=O)N2CCC(NC(=O)[C@H](CC(C)C)NC(=O)NNC(=O)[C@H](Cc3ccccc3)NC(=O)c3ccc(CNC(=O)CN4CCN(CC(=O)O)CCN(CC(=O)O)CCN(CC(=O)O)CC4)cc3)(C(=O)N[C@@H](Cc3c[nH]c4ccccc34)C(N)=O)CC2)cc1F` [Compound 109] ({DOTA-4Amb}-F[azaGly]L[Api](Gly(N-(3-F-4-Me-benzyl)))W-NH2): over 8.00.
For `Cc1ccc(CNCC(=O)N2CCC(NC(=O)[C@H](CC(C)C)NC(=O)NNC(=O)[C@H](Cc3ccccc3)NC(=O)[C@H]3CC[C@H](CNC(=O)c4ccc(CNC(=O)CN5CCN(CC(=O)O)CCN(CC(=O)O)CCN(CC(=O)O)CC5)cc4)CC3)(C(=O)N[C@@H](Cc3c[nH]c4ccccc34)C(N)=O)CC2)cc1F` [Compound 110] ({DOTA-4Amb-Trx}-F[azaGly]L[Api](Gly(N-(3-F-4-Me-benzyl)))W-NH2), the pKi is over 8.00.
The same measure, in the same setting: next, `Cc1ccc(CNCC(=O)N2CCC(NC(=O)[C@H](CC(C)C)NC(=O)NNC(=O)[C@H](Cc3ccccc3)NC(=O)[C@H](C)NC(=O)[C@H](CC(N)=O)NC(=O)[C@@H](Cc3c[nH]c4ccccc34)NC(=O)[C@@H](Cc3ccc(O)cc3)NC(=O)CCCCCNC(=O)CN3CCN(CC(=O)O)CCN(CC(=O)O)CCN(CC(=O)O)CC3)(C(=O)N[C@@H](CC(C)C)C(N)=O)CC2)cc1F` [Compound 113] ({DOTA-Ahx}-[dY][dW]NAF[azaGly]L[Api](Gly(N-(3-F-4-Me-benzyl)))L-NH2): over 8.00; `Cc1ccc(CNCC(=O)N2CCC(NC(=O)[C@H](CC(C)C)NC(=O)NNC(=O)[C@H](Cc3ccccc3)NC(=O)[C@@H](NC(=O)[C@H](CC(N)=O)NC(=O)[C@@H](Cc3c[nH]c4ccccc34)NC(=O)[C@@H](Cc3ccc(O)cc3)NC(=O)CCCCCNC(=O)[C@@H](CS(=O)(=O)O)NC(=O)[C@@H](CS(=O)(=O)O)NC(=O)[C@@H](CS(=O)(=O)O)NC(=O)CN3CCN(CC(=O)O)CCN(CC(=O)O)CCN(CC(=O)O)CC3)[C@@H](C)O)(C(=O)N[C@@H](Cc3c[nH]c4ccccc34)C(N)=O)CC2)cc1F` [Compound 114] ({DOTA}-[dCya][dCya][dCya][Ahx][dY][dW]NTF[azaGly]L[Api](Gly(N-(3-F-4-Me-benzyl)))W-NH2): over 8.00; `Cc1ccc(CNCC(=O)N2CCC(NC(=O)[C@H](CC(C)C)NC(=O)NNC(=O)[C@H](Cc3ccccc3)NC(=O)[C@@H](NC(=O)[C@H](CC(N)=O)NC(=O)[C@@H](Cc3c[nH]c4ccccc34)NC(=O)[C@@H](Cc3ccc(O)cc3)NC(=O)CCCCCNC(=O)[C@@H](CS(=O)(=O)O)NC(=O)CN3CCN(CC(=O)O)CCN(CC(=O)O)CCN(CC(=O)O)CC3)[C@@H](C)O)(C(=O)N[C@@H](Cc3c[nH]c4ccccc34)C(N)=O)CC2)cc1F` [Compound 115] ({DOTA}-[dCya][Ahx][dY][dW]NTF[azaGly]L[Api](Gly(N-(3-F-4-Me-benzyl)))W-NH2): over 8.00.
On the same count and under the same terms, next, `Cc1ccc(CNCC(=O)N2CCC(NC(=O)[C@H](CC(C)C)NC(=O)NNC(=O)[C@H](Cc3ccccc3)NC(=O)CCCCCNC(=O)[C@@H](CS(=O)(=O)O)NC(=O)CN3CCN(CC(=O)O)CCN(CC(=O)O)CCN(CC(=O)O)CC3)(C(=O)N[C@@H](Cc3c[nH]c4ccccc34)C(N)=O)CC2)cc1F` [Compound 116] ({DOTA}-[dCya][Ahx]F[azaGly]L[Api](Gly(N-(3-F-4-Me-benzyl)))W-NH2): over 8.00; `Cc1ccc(CNCC(=O)N2CCC(NC(=O)[C@H](CC(C)C)NC(=O)NNC(=O)[C@H](Cc3ccccc3)NC(=O)[C@@H](NC(=O)[C@H](CC(N)=O)NC(=O)[C@H](Cc3ccc4ccccc4c3)NC(=O)[C@@H](Cc3ccc(O)cc3)NC(=O)CCCCCNC(=O)CN3CCN(CC(=O)O)CCN(CC(=O)O)CCN(CC(=O)O)CC3)[C@@H](C)O)(C(=O)N[C@@H](Cc3c[nH]c4ccccc34)C(N)=O)CC2)cc1F` [Compound 118] ({DOTA-Ahx}-[dY][2Nal]NTF[azaGly]L[Api](Gly(N-(3-F-4-Me-benzyl)))W-NH2): over 8.00.
`CCCCCCCCCCCCCCCC(=O)N[C@@H](CCC(=O)N[C@@H](CCCCNC(=O)CCOCCOCCOCCOCCNC(=O)CN1CCN(CC(=O)O)CCN(CC(=O)O)CCN(CC(=O)O)CC1)C(=O)N[C@H](Cc1ccc(O)cc1)C(=O)N[C@H](Cc1c[nH]c2ccccc12)C(=O)N[C@@H](CC(N)=O)C(=O)N[C@H](C(=O)N[C@@H](Cc1ccccc1)C(=O)NNC(=O)N[C@@H](CC(C)C)C(=O)NC1(C(=O)N[C@@H](Cc2c[nH]c3ccccc23)C(N)=O)CCN(C(=O)CNCc2ccc(C)c(F)c2)CC1)[C@@H](C)O)C(=O)O` [Compound 119] ({Palmitoyl-γGlu}-K([PEG4-DOTA])[dY][dW]NTF[azaGly]L[Api](Gly(N-(3-F-4-Me-benzyl)))W-NH2): the pKi was over 8.00.
On the same count and under the same terms, next, `Cc1ccc(CNCC(=O)N2CCC(NC(=O)[C@H](CC(C)C)NC(=O)NNC(=O)[C@H](Cc3ccccc3)NC(=O)[C@@H](NC(=O)[C@H](CC(N)=O)NC(=O)[C@@H](Cc3c[nH]c4ccccc34)NC(=O)[C@@H](Cc3ccc(O)cc3)NC(=O)CCCCCNC(=O)[C@@H](CS(=O)(=O)O)NC(=O)[C@@H](CS(=O)(=O)O)NC(=O)CN3CCN(CC(=O)O)CCN(CC(=O)O)CCN(CC(=O)O)CC3)[C@@H](C)O)(C(=O)N[C@@H](Cc3c[nH]c4ccccc34)C(N)=O)CC2)cc1F` [Compound 120] ({DOTA}-[dCya][dCya][Ahx][dY][dW]NTF[azaGly]L[Api](Gly(N-(3-F-4-Me-benzyl)))W-NH2): over 8.00.

The pKi is −log10 of the Ki, conventionally taken in molar units.
